Results on 1 substance are retold here after patent publication EP0359062B1, “Antibiotic GE 2270” (priority 1988, dated 1990).

The subject of the test is Enterococcus faecalis strain L 149. As to the kind of experiment: Bactericidal activity, time-kill curves. It counts as cell-based. The settings on record: 8 mg/I, in 48 h; inoculum 1.4 x 10^7 CFU/ml. Here is the method:
Time-kill curves were run in 10 ml of Todd-Hewitt broth in 100 ml Erlenmeyer flasks, incubated at 37°C without agitation. A logarithmically growing culture of Enterococcus faecalis strain L 149 was inoculated at 1.4 x 10^7 CFU/ml.
The reference antibiotic (teicoplanin, 8 mg/I) killed 99% of the infecting bacteria in 48 h, while antibiotic GE 2270 factor A (0.13 mg/I) killed 99.8% of the bacteria within 2 h and 99.99% within 48 h at this dose or within 24 h at 4 mg/I.

As for teicoplanin, the killed bacteria is 99%.
